# In patent US11318133B2, “Modulators of integrated stress response pathway” (Praxis Biotech LLC, priority 2019, dated 2022):
# Key:
# [1] = test system: Chinese hamster ovary (CHO) cells; assay: Protein synthesis assay (puromycin incorporation, western blot); assay type: cell-based; details: without Tg, 2 hours, media alone = 100%
# Experimental: Chinese hamster ovary (CHO) cells were maintained at 37° C. and 5% CO2 in Dulbecco's Modified Eagle's Media (DMEM) supplemented with 10% fetal bovine serum, 2 mM L-glutamine, 100 U/ml penicillin, and 100 μg/ml streptomycin. After reaching 80% of confluence, cells were detached and seeded on 6 well plates in complete media, allowed to recover overnight and treated for 2 hours with 1 μM of the test compound (to assess protein synthesis levels in unstressed condition), or for 2 hours with 300 nM Tg in the presence of 1 μM of the test compound (to assess the recovery of protein synthesis in a stressed condition). Cells with Tg alone were used as controls.
# After the 2 hours treatments, media were replaced by adding 10 μg/ml puromycin (Sigma Aldrich #P8833) in complete media for 30 min. Media were removed and cells were lysed with SDS-PAGE lysis buffer. Lysates were transferred to 1.5 ml tubes and sonicated for 3 min and total protein amount were quantified using BCA Protein Assay Kit (Pierce). Equal amount of protein (30 μg) was loaded on SDS-PAGE gels. Proteins were transferred onto […] PVDF membranes (BioRad) and probed with primary antibodies diluted in Tris-buffered saline supplemented with 0.1% Tween 20 (Merck #S6996184 505) and 3% bovine serum albumin (Rockland #BSA-50).
# (§1) Puromycin (12D10) (Merck #MABE343) and 3-actin (Sigma Aldrich #A5441) antibodies were used as primary antibody. A HRP-conjugated secondary antibody (Rockland) was employed to detect immune-reactive bands using enhanced chemiluminescence (ECL Western Blotting Substrate, Pierce). Quantification of protein bands was done by densitometry using ImageJ software.
# Percent increase of protein synthesis in unstressed cells (without Tg treatment) in the presence of media alone or certain test compounds is shown in Table 3. The percentage levels were normalized to the media alone condition, which correspond to 100% protein synthesis.
# Percent recovery of protein synthesis in stressed cells (with Tg treatment) due to the test compounds at 1 μM is also shown in Table 3. The levels were normalized to the media alone and Tg alone conditions, which correspond to 100% and 0% respectively.
# [2] = test system: ATF4; assay: ATF4 expression inhibition assay (ATF4 luciferase reporter, thapsigargin-stressed); assay type: cell-based; details: Homo sapiens, HEK-293T; HEK293T cells carrying ATF4 luciferase reporter, 100 nM thapsigargin, 3 hours
# Experimental: The ATF4 reporter was prepared by fusing the human full length 5′UTR of ATF4 (NCBI Accession No. BC022088.2) upstream of the firefly luciferase coding sequence lacking the initiator methionine. The fused sequence was cloned into pLenti-EF1a-C-Myc-DDK-IRES-Puro cloning vector (Origen #PS100085) using standard methods. Virus production was carried out by using Lenti-X™ Packaging Single Shots Protocol (Clonetech #631276). Viral particles were used to transduce HEK293T cells (ATCC #CRL-3216, ATCC Manassas, Va.), which were subsequently selected with puromycin to generate stable cell line. Cells were maintained at 37° C. and 5% CO2 in DMEM-F12 (Hyclone #SH30023.02) supplemented with 10% heat-inactivated fetal bovine serum (Gibco #16000-044), 2 mM L-glutamine (Gibco #25030-081), 100 U/ml penicillin, and 100 μg/ml streptomycin (Gibco #15140-122).
# HEK293T cells carrying the ATF4 luciferase reporter were plated on 96-well plates (Nunc) at 10,000 cells per well. Cells were treated two days after seeding with 100 nM thapsigargin (Tg) (Sigma-Aldrich #T9033) in the presence of different concentrations of selected compounds ranging from 1 nM to […]. Cells without treatment or cells treated with Tg alone were used as controls. Assay plates containing cells were incubated for 3 hours at 37° C.
# Luciferase reactions were performed using Luciferase Assay System (Promega #E1501) as specified by the manufacturer. Luminescence was read with an integration time of 1 s and a gain of 110 using a Cytation-5 multi-mode microplate reader (BioTek). Relative luminescence units were normalized to Tg treatment (0% inhibition) and untreated cells (100% inhibition) and the percentage of ATF4 inhibition was calculated.
# Accordingly, inhibition of ATF4 expression as a result of the test compound indicates suppression of the ISR pathway.
# [3] = test system: Balb/c mice; assay: Fasting-induced muscle atrophy, in vivo protein synthesis; details: 10 mg/kg oral, 2 days fasting, versus vehicle-treated fasted mice; FIG. 1
# Experimental: Wild type eight-weeks-old male Balb/c mice obtained from the vivarium Fundaciön Ciencia & Vida Chile (Santiago, Chile) are used. Mice were housed in independent plastic cages in a room maintained at 25° C. with a 12-h:12-h light:dark cycle. […]
# Upon collection, muscles were immediately frozen in liquid nitrogen and then stored at −80° C. […] Protein concentration in supernatants was determined using BCA Protein Assay Kit (Pierce). […]
# as §1, with “Millipore,” for “#MABE343)”, “β-actin (Sigma-Aldrich)” for “3-actin (Sigma Aldrich #A5441)”, “antibodies.” for “antibody.”
# Percent of protein synthesis in tibialis anterior of each mouse from fed or fasted animals treated with vehicle or compound 3 is shown in FIG. 1. The levels were normalized to β-actin expression and percentage was calculated as the percent relative to protein synthesis levels from control mice (Fed) which correspond to 100%.
IC50 [2],SMILES,% Protein synthesis in unstressed cells (1 μM test compound) [1],Protein synthesis in tibialis anterior of fasted mice [3]
> 10 µM,"O=C(NC1CCN(CC(O)COc2ccc(Cl)c(F)c2)CC1)c1cn(C2CC2)c2cc(Cl)c(F)cc2c1=O (centres unmarked) [Compound 1, 7-chloro-N-(1-(3-(4-chloro-3-fluorophenoxy)-2-hydroxypropyl)piperidin-4-yl)-1-cyclopropyl-6-fluoro-4-oxo-1,4-dihydroquinoline-3-carboxamide]",336.9%,
> 10 µM,"O=C(NN1CCN(C[C@@H](O)COc2ccc(Cl)c(F)c2)CC1)c1cn(C2CC2)c2cc(Cl)c(F)cc2c1=O [Compound 5, (R)-7-chloro-N-(4-(3-(4-chloro-3-fluorophenoxy)-2-hydroxypropyl)piperazin-1-yl)-1-cyclopropyl-6-fluoro-4-oxo-1,4-dihydroquinoline-3-carboxamide]",173.2%,
> 10 µM,"O=C(NC1CCN(C[C@H](O)COc2ccc(Cl)c(F)c2)CC1)c1cn(C2CC2)c2cc(Cl)c(F)cc2c1=O [Compound 3, (S)-7-chloro-N-(1-(3-(4-chloro-3-fluorophenoxy)-2-hydroxypropyl)piperidin-4-yl)-1-cyclopropyl-6-fluoro-4-oxo-1,4-dihydroquinoline-3-carboxamide]",397.3%,improvement in protein synthesis in muscles
> 10 µM,"O=C(NN1CCN(C[C@H](O)COc2ccc(Cl)c(F)c2)CC1)c1cn(C2CC2)c2cc(Cl)c(F)cc2c1=O [Compound 6, (S)-7-chloro-N-(4-(3-(4-chloro-3-fluorophenoxy)-2-hydroxypropyl)piperazin-1-yl)-1-cyclopropyl-6-fluoro-4-oxo-1,4-dihydroquinoline-3-carboxamide]",244.5%,
> 10 µM,"O=C(NC1CCN(C[C@@H](O)COc2ccc(Cl)c(F)c2)CC1)c1cn(C2CC2)c2cc(Cl)c(F)cc2c1=O [Compound 2, (R)-7-chloro-N-(1-(3-(4-chloro-3-fluorophenoxy)-2-hydroxypropyl)piperidin-4-yl)-1-cyclopropyl-6-fluoro-4-oxo-1,4-dihydroquinoline-3-carboxamide]",336.3%,
